How the values were obtained:
human mGluR5 = human mGluR5 (Homo sapiens, UniProt P41594); test: Cell-based functional Ca2+ mobilization assay (FDSS), potentiation of glutamate EC20 response; details: H10H cell-line (HEK, recombinant human mGluR5); for Emax: glutamate EC20, maximum average response at a single concentration, percent of maximal glutamate response; for EC50: positive allosteric modulation in presence of glutamate EC20, concentration in mol/L
Description: Human mGluR5a cDNA in pCMV6-XL6 mammalian expression plasmid was purchased from OriGene Technologies, Inc. (catalogue number SC326357) and subcloned into pcDNA3.1(−). Human embryonic kidney (HEK) 293A cells were then transfected with human mGluR5a pcDNA3.1(−) using LipofectAmine2000 (Invitrogen) and monoclones were selected and tested for functional response using a Ca^2+ mobilization assay. Monoclones were named for the species (“H” for human) plus the location on the plate (e.g. “10H”).
HEK cells transfected with the human mGluR5a receptor (H10H or H12H cell line) were plated at 15,000 cells/well in clear-bottomed poly-D-lysine-coated assay plates (BD Falcon) in glutamate-glutamine-free growth medium and incubated overnight at 37° C. and 5% CO2. Cell-lines used were either the H10H or H12H cell-lines expressing the human mGluR5 receptor. The following day, the growth medium was removed and the cells were washed with assay buffer containing 1× Hank's balanced salt solution (Invitrogen, Carlsbad, Calif.), 20 mM HEPES, 2.5 mM probenecid, pH 7.4 and left with 20 μL of this reagent. Following this step, the cells were loaded with calcium indicator dye, fluo-4 AM, to a final concentration of 2 μM and incubated for 40-45 min at 37° C. The dye solution was removed and replaced with assay buffer. Cell plates were held for 10-15 min at room temperature and were then loaded into the Functional Drug Screening System 6000 (FDSS 6000, Hamamatsu, Japan).
After establishment of a fluorescence baseline for about 3 seconds, the compounds of the present invention were added to the cells, and the response in cells was measured. 2.3 minutes later an EC20 concentration of the mGluR5 receptor agonist glutamate was added to the cells, and the response of the cells was measured for about 1.7 minutes. All test compounds were dissolved and diluted to a concentration of 10 mM in 100% DMSO and then serially diluted into assay buffer for a 2× stock solution in 0.6% DMSO; stock compounds were then added to the assay for a final DMSO concentration of 0.3% after the first addition to the assay well. Calcium fluorescence measures were recorded as fold over basal fluorescence; raw data was then normalized to the maximal response to glutamate. Potentiation of the agonist response of the mGluR5 receptor in the present invention was observed as an increase in response to submaximal concentrations of glutamate in the presence of compound compared to the response to glutamate in the absence of compound.
The concentration-response curves of compounds of the present invention, obtained in the presence of EC20 of mGluR5 receptor agonist glutamate to determine positive allosteric modulation, were generated using Microsoft Excel with IDBS XLFit add-ins. The raw data file containing all time points was used as the data source in the analysis template. This was saved by the FDSS as a tab-delimited text file. Data were normalized using a static ratio function (F/F0) for each measurement of the total 350 values per well divided by each well's initial value. Data was then reduced as to peak amplitudes (Max-Initial Min) using a time range that starts approximately 1 second after the glutamate EC20 addition and continues for approximately 40 seconds. This is sufficient time to capture the peak amplitude of the cellular Calcium response. Individual amplitudes were expressed as % EMax by multiplying each amplitude by 100 and then dividing the product by the mean of the amplitudes derived from the glutamate ECMax-treated wells. pEC50 values for test compounds were generated by fitting the normalized values versus the log of the test compound concentration (in mol/L) using a 4 parameter logistic equation where none of the parameters were fixed. Each of the three values collected at each concentration of test compound were weighted evenly. Individual values falling outside the 95% prediction limits of the curve fit were automatically excluded from the fit. […]

human mGluR5, sequence (P41594 21-1180 isoform P41594-2 limits assumed): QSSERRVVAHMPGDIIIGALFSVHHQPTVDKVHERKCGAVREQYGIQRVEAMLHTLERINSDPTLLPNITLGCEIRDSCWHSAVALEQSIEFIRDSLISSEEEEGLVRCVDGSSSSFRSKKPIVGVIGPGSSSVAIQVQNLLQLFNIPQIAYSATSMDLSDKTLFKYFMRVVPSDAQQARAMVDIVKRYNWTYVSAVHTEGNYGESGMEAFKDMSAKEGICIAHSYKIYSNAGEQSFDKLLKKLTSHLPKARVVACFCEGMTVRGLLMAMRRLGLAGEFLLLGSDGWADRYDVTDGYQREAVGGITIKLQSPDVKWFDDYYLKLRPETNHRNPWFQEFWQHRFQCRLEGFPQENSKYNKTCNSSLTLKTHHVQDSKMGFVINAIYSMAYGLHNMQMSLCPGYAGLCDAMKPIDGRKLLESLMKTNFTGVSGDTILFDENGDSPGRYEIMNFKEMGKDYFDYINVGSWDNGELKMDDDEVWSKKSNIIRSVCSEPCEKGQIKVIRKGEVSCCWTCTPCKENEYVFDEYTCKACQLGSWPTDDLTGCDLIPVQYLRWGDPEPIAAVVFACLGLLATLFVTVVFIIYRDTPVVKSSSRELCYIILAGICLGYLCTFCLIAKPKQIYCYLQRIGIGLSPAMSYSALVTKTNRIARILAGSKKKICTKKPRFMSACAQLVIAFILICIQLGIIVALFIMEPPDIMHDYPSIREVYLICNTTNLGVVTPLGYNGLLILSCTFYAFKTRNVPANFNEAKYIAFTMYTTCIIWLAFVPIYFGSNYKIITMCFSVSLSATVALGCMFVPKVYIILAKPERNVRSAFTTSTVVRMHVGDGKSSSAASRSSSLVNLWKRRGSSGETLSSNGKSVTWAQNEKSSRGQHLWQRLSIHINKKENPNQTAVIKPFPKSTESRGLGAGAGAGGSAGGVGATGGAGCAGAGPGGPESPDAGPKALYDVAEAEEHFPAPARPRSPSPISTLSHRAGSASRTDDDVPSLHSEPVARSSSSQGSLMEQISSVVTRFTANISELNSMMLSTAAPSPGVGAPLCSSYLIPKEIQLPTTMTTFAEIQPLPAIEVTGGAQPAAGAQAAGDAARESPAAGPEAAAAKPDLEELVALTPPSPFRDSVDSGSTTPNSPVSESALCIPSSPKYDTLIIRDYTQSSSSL

Structure (SMILES): CC1CN([C@H](C)c2ccccc2)C(=O)c2cc(COc3ccccc3)nn21 (single isomer, unassigned) [Example B4, (7*S)-7-methyl-2-(phenoxymethyl)-5-[(1R)-1-phenylethyl]-6,7-dihydropyrazolo[1,5-a]pyrazin-4(5H)-one]
- Emax (human mGluR5): 68.5%
- EC50 (human mGluR5): 55 nM
- melting point: 132 °C

Structure (SMILES): CC1CN(Cc2ccccc2)C(=O)c2cc(COc3cccc(F)c3)nn21 (single isomer, unassigned) [Example B10, (7*S)-5-benzyl-2-[(3-fluorophenoxy)methyl]-7-methyl-6,7-dihydropyrazolo[1,5-a]pyrazin-4(5H)-one]
- Emax (human mGluR5): 70.5%
- EC50 (human mGluR5): 69.2 nM

Structure (SMILES): CC1CN(Cc2ccccc2)C(=O)c2cc(COc3ccccc3)nn21 (single isomer, unassigned) [Example B14]
- Emax (human mGluR5): 69.5%
- EC50 (human mGluR5): 60.3 nM
- melting point: 97.7 °C

Structure (SMILES): CC1CN(Cc2ccccc2)C(=O)c2cc(COc3cccc(C#N)c3)nn21 (single isomer, unassigned) [Example B53]
- Emax (human mGluR5): 65%
- EC50 (human mGluR5): 525 nM

Structure (SMILES): CC1CN(Cc2ccccc2)C(=O)c2cc(COc3ccc(F)cc3)nn21 (single isomer, unassigned) [Example B54]
- Emax (human mGluR5): 69.5%
- EC50 (human mGluR5): 93.3 nM

Structure (SMILES): Cc1cccc(OCc2cc3n(n2)C(C)CN(Cc2ccccc2)C3=O)c1 (single isomer, unassigned) [Example B55]
- Emax (human mGluR5): 69.5%

Structure (SMILES): COc1cccc(CN2CCn3nc(COc4ccccc4)cc3C2=O)n1 [Example B1, 5-[(6-methoxypyridin-2-yl)methyl]-2-(phenoxymethyl)-6,7-dihydropyrazolo[1,5-a]pyrazin-4(5H)-one]
- Emax (human mGluR5): 68%
- EC50 (human mGluR5): 91.2 nM
- melting point: 97.7 °C

Structure (SMILES): O=C1c2cc(COc3ccccc3)nn2CCCN1Cc1ccccc1 [Example B2, 5-benzyl-2-(phenoxymethyl)-5,6,7,8-tetrahydro-4H-pyrazolo[1,5-a][1,4]diazepin-4-one]
- Emax (human mGluR5): 64%
- EC50 (human mGluR5): 87.1 nM
- melting point: 94.6 °C

Structure (SMILES): Cc1cccc(CN2CCn3nc(COc4ccccc4)cc3C2=O)n1 [Example B3, 5-[(6-methylpyridin-2-yl)methyl]-2-(phenoxymethyl)-6,7-dihydropyrazolo[1,5-a]pyrazin-4(5H)-one]
- Emax (human mGluR5): 68%
- EC50 (human mGluR5): 302 nM
- melting point: 113.4 °C

Structure (SMILES): O=C1c2cc(COc3ccccc3)nn2CCN1Cc1ccc(F)cn1 [Example B5, 5-[(5-fluoropyridin-2-yl)methyl]-2-(phenoxymethyl)-6,7-dihydropyrazolo[1,5-a]pyrazin-4(5H)-one]
- Emax (human mGluR5): 69%
- EC50 (human mGluR5): 550 nM
- melting point: 126.5 °C

Structure (SMILES): O=C1c2cc(COc3ccccc3)nn2CCN1Cc1ncccc1Cl [Example B6, 5-[(3-chloropyridin-2-yl)methyl]-2-(phenoxymethyl)-6,7-dihydropyrazolo[1,5-a]pyrazin-4(5H)-one]
- Emax (human mGluR5): 76%
- EC50 (human mGluR5): 120 nM

Structure (SMILES): O=C1c2cc(COc3ccccc3)nn2CCN1Cc1ccccc1 [Example B7, 5-benzyl-2-(phenoxymethyl)-6,7-dihydropyrazolo[1,5-a]pyrazin-4(5H)-one]
- Emax (human mGluR5): 69%
- EC50 (human mGluR5): 49 nM
- melting point: 91.5 °C

Structure (SMILES): C[C@H](c1ccccc1)N1CCn2nc(COc3ccccc3)cc2C1=O [Example B8, 2-(phenoxymethyl)-5-[(1R)-1-phenylethyl]-6,7-dihydropyrazolo[1,5-a]pyrazin-4(5H)-one]
- Emax (human mGluR5): 59.5%
- EC50 (human mGluR5): 30.9 nM

Structure (SMILES): O=C1c2cc(COc3ccccn3)nn2CCN1Cc1ccccc1 [Example B9, 5-benzyl-2-[(pyridin-2-yloxy)methyl]-6,7-dihydropyrazolo[1,5-a]pyrazin-4(5H)-one]
- Emax (human mGluR5): 62%
- EC50 (human mGluR5): 347 nM
- melting point: 124.7 °C

Structure (SMILES): O=C1c2cc(COc3cccc(F)c3)nn2CCN1Cc1ccccc1 [Example B11, 5-benzyl-2-[(3-fluorophenoxy)methyl]-6,7-dihydropyrazolo[1,5-a]pyrazin-4(5H)-one]
- Emax (human mGluR5): 63%
- EC50 (human mGluR5): 46.8 nM
- melting point: 104.9 °C

Structure (SMILES): COc1cnc(CN2CCn3nc(COc4ccccc4)cc3C2=O)nc1 [Example B12]
- Emax (human mGluR5): 59.5%
- EC50 (human mGluR5): 30.9 nM
- melting point: > 300 °C

Structure (SMILES): CC(c1cccnc1)N1CCn2nc(COc3ccccc3)cc2C1=O (centres unmarked) [Example B13]
- Emax (human mGluR5): 60%
- EC50 (human mGluR5): 1660 nM
- melting point: > 300 °C (dec.)

Structure (SMILES): O=C1c2cc(COc3ccccc3)nn2CCN1Cc1ccccn1 [Example B17]
- Emax (human mGluR5): 69.5%
- EC50 (human mGluR5): 1120 nM
- melting point: 75.3 °C

Structure (SMILES): O=C1c2cc(COc3ccccc3)nn2CCN1Cc1cccnc1 [Example B18]
- Emax (human mGluR5): 63%
- EC50 (human mGluR5): 1910 nM
- melting point: 123.4 °C

Structure (SMILES): O=C1c2cc(COc3ccccc3)nn2CCN1Cc1ccccc1F [Example B19]
- Emax (human mGluR5): 69.5%
- EC50 (human mGluR5): 43.7 nM
- melting point: 110.6 °C

Structure (SMILES): O=C1c2cc(COc3ccccc3)nn2CCN1Cc1cccc(F)c1 [Example B20]
- Emax (human mGluR5): 65%
- EC50 (human mGluR5): 47.9 nM
- melting point: 95 °C

Structure (SMILES): O=C1c2cc(COc3ccccc3)nn2CCN1Cc1ccc(F)c(F)c1 [Example B21]
- Emax (human mGluR5): 68%
- EC50 (human mGluR5): 77.6 nM
- melting point: 133.2 °C

Structure (SMILES): O=C1c2cc(COc3ccccc3)nn2CCN1Cc1ccc(F)cc1F [Example B22]
- Emax (human mGluR5): 69%
- EC50 (human mGluR5): 61.7 nM
- melting point: 129.8 °C

Structure (SMILES): O=C1c2cc(COc3ccccc3)nn2CCN1Cc1cccc(F)c1F [Example B23]
- Emax (human mGluR5): 72.5%
- EC50 (human mGluR5): 31.6 nM
- melting point: 122.8 °C

Structure (SMILES): O=C1c2cc(COc3ccccc3)nn2CCN1Cc1cc(F)ccc1F [Example B24]
- Emax (human mGluR5): 71%
- EC50 (human mGluR5): 120 nM
- melting point: 113.6 °C

Structure (SMILES): COc1ccc(CN2CCn3nc(COc4cccc(C)n4)cc3C2=O)cc1 [Example B29]
- Emax (human mGluR5): 37%
- EC50 (human mGluR5): > 10000 nM
- melting point: 91.2 °C

Structure (SMILES): COc1ccc(CN2CCn3nc(COc4cc(C)ccn4)cc3C2=O)cc1 [Example B30]
- Emax (human mGluR5): 61%
- EC50 (human mGluR5): > 10000 nM
- melting point: > 300 °C

Structure (SMILES): COc1ccc(CN2CCn3nc(COc4ccccc4)cc3C2=O)cc1 [Example B34]
- Emax (human mGluR5): 69%
- EC50 (human mGluR5): 209 nM

Structure (SMILES): COc1ccccc1CN1CCn2nc(COc3ccccc3)cc2C1=O [Example B38]
- Emax (human mGluR5): 63.5%
- EC50 (human mGluR5): 40.7 nM

Structure (SMILES): N#Cc1cccc(OCc2cc3n(n2)CCN(Cc2ccccc2)C3=O)c1 [Example B43]
- Emax (human mGluR5): 53%
- EC50 (human mGluR5): 380 nM

Structure (SMILES): C[C@@H]1Cn2nc(COc3cccc(F)c3)cc2C(=O)N1Cc1ccccc1 [Example B49]
- Emax (human mGluR5): 73%
- EC50 (human mGluR5): 93.3 nM

Structure (SMILES): C[C@@H]1Cn2nc(COc3ccccn3)cc2C(=O)N1Cc1ccccc1 [Example B56]
- Emax (human mGluR5): 70%
- EC50 (human mGluR5): 1000 nM

Structure (SMILES): Cc1cccc(OCc2cc3n(n2)C[C@@H](C)N(Cc2ccccc2)C3=O)c1 [Example B57]
- Emax (human mGluR5): 64.5%
- EC50 (human mGluR5): 186 nM

Structure (SMILES): C[C@@H]1Cn2nc(COc3cccc(C#N)c3)cc2C(=O)N1Cc1ccccc1 [Example B58]
- Emax (human mGluR5): 59%
- EC50 (human mGluR5): 468 nM

Structure (SMILES): COc1cccc(CN2CCn3nc(COc4ccccc4)cc3C2=O)c1F [Example B59]
- Emax (human mGluR5): 71%
- EC50 (human mGluR5): 107 nM

Structure (SMILES): COc1cccc(CN2CCn3nc(COc4ccccc4)cc3C2=O)c1Cl [Example B60]
- Emax (human mGluR5): 75.5%
- EC50 (human mGluR5): 79.4 nM

Structure (SMILES): COc1ccc(F)cc1CN1CCn2nc(COc3ccccc3)cc2C1=O [Example B61]
- Emax (human mGluR5): 66%
- EC50 (human mGluR5): 85.1 nM

Structure (SMILES): O=C1c2cc(COc3ccccc3)nn2CCN1Cc1ncc(F)cn1 [Example B70]
- Emax (human mGluR5): 66%
- EC50 (human mGluR5): 398 nM

Structure (SMILES): O=C1c2cc(COc3ccccc3)nn2CCN1Cc1ccncc1 [Example B102]
- Emax (human mGluR5): 68%
- EC50 (human mGluR5): 1780 nM
